The record followed here is patent US10231954B2, “Neurodegenerative therapies” (LYTIX BIOPHARMA AS, priority 2014, dated 2019).

SMILES strings stand for the structures. pIC50: −log10 of the molar value.

Holding throughout (assay type): biochemical
Experiment [1] has as its target DYRK1A (Homo sapiens, UniProt Q13627). In words: Determination of IC50 values against DYRK1a. To be noted: average of duplicate; 10 concentrations 100 μM to 0.003 μM; read-out: IC 50 against DYRK1a. Here is the method: The kinase assay was carried out using Multidrop 384's at room temperature in a total assay volume of 25.5 μl. To plates containing 0.5 μl of compounds, DMSO controls or acid blanks, 15 μl of an enzyme mix containing the DYRK1a enzyme and peptide/protein substrate in buffer was added. Compounds were pre-incubated in the presence of the enzyme and peptide/protein substrate for 5 minutes before initiation of the reaction by addition of 10 μl of ATP (final concentration selected for each kinase at 5, 20 or 50 μM). Assays were carried out for 30 minutes at room temperature before termination by the addition of 5 μl orthophosphoric acid. The assay plates were then harvested onto P81 Unifilter Plates by a Packard Harvester (wash buffer is 50 mM orthophosphoric acid) and dried in air. The dry Unifilter plates were then sealed by the addition of MicroScint O and counted in Packard Topcount NXT scintillation counters.

The target in experiment [2] is T1, SGK1 (Homo sapiens, UniProt O00141).
T1 sequence (O00141 1-431): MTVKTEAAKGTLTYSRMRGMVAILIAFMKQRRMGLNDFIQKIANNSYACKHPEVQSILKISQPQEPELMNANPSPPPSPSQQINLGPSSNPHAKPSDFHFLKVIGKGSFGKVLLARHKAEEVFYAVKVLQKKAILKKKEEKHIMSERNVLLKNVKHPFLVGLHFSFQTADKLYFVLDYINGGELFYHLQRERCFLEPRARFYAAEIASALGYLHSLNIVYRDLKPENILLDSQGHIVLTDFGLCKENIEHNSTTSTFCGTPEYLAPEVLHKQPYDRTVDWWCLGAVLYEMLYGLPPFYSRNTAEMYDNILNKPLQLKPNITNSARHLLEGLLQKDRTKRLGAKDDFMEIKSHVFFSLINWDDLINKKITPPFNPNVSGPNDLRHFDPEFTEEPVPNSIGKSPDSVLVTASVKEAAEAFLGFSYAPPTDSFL
The experiment in a line: Kinase profiling SGK1. The settings on record: 100 micromolar inhibitor concentration; 100 is no change. From the text: (§1) Any value less that 25 is considered to be highly significant inhibition.

For experiment [3], the target named is ROCK 2 (Homo sapiens, UniProt O75116). The experiment in a line: Kinase profiling ROCK 2. To be noted: 100 micromolar inhibitor concentration; 100 is no change.
ROCK 2, sequence (O75116 whole entry, species assumed): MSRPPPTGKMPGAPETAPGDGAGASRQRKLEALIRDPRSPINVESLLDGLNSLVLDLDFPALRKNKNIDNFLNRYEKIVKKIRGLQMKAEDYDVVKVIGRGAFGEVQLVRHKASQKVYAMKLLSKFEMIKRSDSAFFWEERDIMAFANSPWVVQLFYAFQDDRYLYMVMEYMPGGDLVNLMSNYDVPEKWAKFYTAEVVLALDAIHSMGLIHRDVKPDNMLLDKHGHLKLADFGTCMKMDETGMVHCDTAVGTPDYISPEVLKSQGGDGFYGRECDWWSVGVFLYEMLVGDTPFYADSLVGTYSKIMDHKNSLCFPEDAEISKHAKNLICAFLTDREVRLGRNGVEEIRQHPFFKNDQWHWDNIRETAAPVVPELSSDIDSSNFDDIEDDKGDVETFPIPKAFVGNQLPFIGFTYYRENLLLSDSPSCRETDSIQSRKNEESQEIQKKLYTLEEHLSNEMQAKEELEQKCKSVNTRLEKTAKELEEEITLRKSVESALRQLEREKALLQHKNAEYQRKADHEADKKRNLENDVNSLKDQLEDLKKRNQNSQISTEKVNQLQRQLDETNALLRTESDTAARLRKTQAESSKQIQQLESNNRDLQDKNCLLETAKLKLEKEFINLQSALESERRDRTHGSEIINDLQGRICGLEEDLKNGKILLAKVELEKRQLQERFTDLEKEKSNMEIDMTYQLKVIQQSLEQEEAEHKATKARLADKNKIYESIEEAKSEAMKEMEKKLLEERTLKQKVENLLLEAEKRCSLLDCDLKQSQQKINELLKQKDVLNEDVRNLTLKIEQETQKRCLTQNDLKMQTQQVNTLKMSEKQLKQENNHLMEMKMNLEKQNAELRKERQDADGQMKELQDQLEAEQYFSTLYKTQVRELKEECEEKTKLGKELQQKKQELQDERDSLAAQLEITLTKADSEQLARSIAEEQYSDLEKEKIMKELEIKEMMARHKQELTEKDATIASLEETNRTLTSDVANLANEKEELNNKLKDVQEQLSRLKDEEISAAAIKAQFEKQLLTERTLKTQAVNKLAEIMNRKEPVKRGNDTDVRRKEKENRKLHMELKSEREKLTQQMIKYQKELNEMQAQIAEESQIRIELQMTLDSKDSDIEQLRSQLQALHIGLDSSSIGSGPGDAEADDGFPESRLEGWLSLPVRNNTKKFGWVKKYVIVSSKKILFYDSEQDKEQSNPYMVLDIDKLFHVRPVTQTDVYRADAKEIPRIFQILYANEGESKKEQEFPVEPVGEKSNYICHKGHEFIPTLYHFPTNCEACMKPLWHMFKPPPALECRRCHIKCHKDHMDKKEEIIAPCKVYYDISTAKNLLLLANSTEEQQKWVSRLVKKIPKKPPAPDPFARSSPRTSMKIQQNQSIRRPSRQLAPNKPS
Excerpt: as §1

Experiment [4] addresses PKBa (Homo sapiens, UniProt P31749). The experiment in a line: Kinase profiling PKBa. To be noted: 100 micromolar inhibitor concentration; 100 is no change.
Excerpt: as §1

Experiment [5] deals with PRK2 (Homo sapiens, UniProt Q16513). In words: Kinase profiling PRK2. To be noted: 100 micromolar inhibitor concentration; 100 is no change.
Excerpt: as §1

Experiment [6] has as its target JNK1 (Homo sapiens, UniProt P45983). In words: Kinase profiling JNK1. The settings on record: 100 micromolar inhibitor concentration; 100 is no change.
Excerpt: as §1

For experiment [7], the target named is MKK1 (Homo sapiens, UniProt Q02750). The experiment in a line: Kinase profiling MKK1. The settings on record: 100 micromolar inhibitor concentration; 100 is no change.
MKK1, sequence (Q02750 whole entry, species assumed): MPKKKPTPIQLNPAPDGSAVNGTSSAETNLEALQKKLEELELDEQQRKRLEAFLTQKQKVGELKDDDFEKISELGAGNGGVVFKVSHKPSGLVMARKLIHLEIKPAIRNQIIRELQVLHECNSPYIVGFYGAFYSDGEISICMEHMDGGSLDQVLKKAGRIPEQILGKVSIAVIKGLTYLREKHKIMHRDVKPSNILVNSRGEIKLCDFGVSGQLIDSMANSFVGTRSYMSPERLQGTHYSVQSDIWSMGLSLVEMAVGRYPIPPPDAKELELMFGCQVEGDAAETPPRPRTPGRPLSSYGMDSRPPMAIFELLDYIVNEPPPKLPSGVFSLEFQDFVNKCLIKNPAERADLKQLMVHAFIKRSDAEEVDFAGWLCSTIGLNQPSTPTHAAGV
Excerpt: as §1

Experiment [8] addresses T2, PKD1 (Homo sapiens, UniProt Q15139).
T2 sequence (Q15139 1-912): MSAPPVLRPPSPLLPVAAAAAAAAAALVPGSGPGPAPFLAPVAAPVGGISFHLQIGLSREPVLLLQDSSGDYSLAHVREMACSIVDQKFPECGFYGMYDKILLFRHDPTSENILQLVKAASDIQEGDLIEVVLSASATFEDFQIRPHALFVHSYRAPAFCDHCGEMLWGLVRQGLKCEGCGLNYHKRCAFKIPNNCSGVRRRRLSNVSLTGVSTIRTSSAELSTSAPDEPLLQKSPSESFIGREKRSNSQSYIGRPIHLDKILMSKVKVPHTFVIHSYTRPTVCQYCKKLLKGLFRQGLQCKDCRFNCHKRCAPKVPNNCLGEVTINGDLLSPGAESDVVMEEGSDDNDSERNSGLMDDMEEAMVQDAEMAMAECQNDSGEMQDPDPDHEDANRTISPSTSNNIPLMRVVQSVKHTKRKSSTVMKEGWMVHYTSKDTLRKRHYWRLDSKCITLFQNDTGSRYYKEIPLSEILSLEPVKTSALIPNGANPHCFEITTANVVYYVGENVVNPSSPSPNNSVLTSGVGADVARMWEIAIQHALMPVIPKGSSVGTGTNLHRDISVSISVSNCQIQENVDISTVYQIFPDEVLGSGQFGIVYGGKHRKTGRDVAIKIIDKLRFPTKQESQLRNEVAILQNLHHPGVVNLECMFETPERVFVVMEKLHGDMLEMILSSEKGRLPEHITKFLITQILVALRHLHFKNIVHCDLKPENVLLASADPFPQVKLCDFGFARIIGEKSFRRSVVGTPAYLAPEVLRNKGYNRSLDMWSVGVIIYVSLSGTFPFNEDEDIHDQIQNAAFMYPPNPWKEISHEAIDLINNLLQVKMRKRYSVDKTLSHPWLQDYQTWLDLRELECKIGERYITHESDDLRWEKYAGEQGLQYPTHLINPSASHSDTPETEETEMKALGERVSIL
The experiment in a line: Kinase profiling PKD1. To be noted: 100 micromolar inhibitor concentration; 100 is no change.
Excerpt: as §1

Experiment [9] has as its target T3, PDK1 (Homo sapiens, UniProt O15530).
T3 sequence (O15530 1-556): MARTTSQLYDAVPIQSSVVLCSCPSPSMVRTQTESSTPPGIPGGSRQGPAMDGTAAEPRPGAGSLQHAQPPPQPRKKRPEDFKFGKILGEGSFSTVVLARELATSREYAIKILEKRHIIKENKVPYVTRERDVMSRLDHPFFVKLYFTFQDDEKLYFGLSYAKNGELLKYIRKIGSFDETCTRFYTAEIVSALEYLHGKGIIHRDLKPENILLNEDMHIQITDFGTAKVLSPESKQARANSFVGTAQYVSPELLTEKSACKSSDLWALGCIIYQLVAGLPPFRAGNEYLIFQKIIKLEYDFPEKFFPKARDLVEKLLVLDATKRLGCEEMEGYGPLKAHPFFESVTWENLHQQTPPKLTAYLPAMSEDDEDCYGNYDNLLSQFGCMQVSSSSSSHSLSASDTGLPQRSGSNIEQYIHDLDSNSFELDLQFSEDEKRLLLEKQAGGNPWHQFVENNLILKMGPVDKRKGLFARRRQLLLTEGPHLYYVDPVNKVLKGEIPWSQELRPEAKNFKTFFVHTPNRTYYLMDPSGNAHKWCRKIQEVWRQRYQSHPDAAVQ
The experiment in a line: Kinase profiling PDK1. To be noted: 100 micromolar inhibitor concentration; 100 is no change.
Excerpt: as §1

In experiment [10] the target is p38a MAPK (Homo sapiens, UniProt Q16539). The experiment in a line: Kinase profiling p38a MAPK. To be noted: 100 micromolar inhibitor concentration; 100 is no change.
p38a MAPK, sequence (Q16539 whole entry): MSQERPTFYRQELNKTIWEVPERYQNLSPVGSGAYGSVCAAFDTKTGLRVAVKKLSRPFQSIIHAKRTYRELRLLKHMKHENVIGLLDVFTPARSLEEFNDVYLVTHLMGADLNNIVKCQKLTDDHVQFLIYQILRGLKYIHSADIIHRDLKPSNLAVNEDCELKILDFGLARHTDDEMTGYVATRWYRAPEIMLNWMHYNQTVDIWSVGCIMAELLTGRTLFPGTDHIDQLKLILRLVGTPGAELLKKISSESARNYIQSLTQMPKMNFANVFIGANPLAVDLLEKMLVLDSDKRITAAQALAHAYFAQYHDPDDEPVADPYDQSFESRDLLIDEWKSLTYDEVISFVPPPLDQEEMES
Excerpt: as §1

In experiment [11] the target is S6K1 (Homo sapiens, UniProt P23443). In words: Kinase profiling S6K1. The settings on record: 100 micromolar inhibitor concentration; 100 is no change.
S6K1, sequence (P23443 whole entry, species assumed): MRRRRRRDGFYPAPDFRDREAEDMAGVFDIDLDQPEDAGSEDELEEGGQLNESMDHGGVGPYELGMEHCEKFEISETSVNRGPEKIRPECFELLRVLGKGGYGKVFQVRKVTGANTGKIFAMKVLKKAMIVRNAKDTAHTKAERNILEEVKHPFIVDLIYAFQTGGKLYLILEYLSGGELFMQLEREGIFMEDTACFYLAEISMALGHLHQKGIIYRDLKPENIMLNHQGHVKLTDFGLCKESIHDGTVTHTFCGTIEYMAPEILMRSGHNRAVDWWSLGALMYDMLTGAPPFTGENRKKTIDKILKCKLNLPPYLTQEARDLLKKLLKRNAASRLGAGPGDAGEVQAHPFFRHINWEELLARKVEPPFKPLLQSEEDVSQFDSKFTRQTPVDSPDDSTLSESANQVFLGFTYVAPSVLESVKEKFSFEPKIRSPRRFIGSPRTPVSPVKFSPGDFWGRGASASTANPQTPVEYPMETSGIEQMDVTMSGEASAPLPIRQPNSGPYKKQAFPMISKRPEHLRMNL
Excerpt: as §1

For experiment [12], the target named is PKCa (Homo sapiens, UniProt P17252). In words: Kinase profiling PKCa. The settings on record: 100 micromolar inhibitor concentration; 100 is no change.
Excerpt: as §1

Experiment [13] has as its target PKA (Homo sapiens, UniProt P17612). In words: Kinase profiling PKA. To be noted: 100 micromolar inhibitor concentration; 100 is no change.
Excerpt: as §1

In experiment [14] the target is RSK1 (Homo sapiens, UniProt Q15418). In words: Kinase profiling RSK1. The settings on record: 100 micromolar inhibitor concentration; 100 is no change.
RSK1, sequence (Q15418 whole entry, species assumed): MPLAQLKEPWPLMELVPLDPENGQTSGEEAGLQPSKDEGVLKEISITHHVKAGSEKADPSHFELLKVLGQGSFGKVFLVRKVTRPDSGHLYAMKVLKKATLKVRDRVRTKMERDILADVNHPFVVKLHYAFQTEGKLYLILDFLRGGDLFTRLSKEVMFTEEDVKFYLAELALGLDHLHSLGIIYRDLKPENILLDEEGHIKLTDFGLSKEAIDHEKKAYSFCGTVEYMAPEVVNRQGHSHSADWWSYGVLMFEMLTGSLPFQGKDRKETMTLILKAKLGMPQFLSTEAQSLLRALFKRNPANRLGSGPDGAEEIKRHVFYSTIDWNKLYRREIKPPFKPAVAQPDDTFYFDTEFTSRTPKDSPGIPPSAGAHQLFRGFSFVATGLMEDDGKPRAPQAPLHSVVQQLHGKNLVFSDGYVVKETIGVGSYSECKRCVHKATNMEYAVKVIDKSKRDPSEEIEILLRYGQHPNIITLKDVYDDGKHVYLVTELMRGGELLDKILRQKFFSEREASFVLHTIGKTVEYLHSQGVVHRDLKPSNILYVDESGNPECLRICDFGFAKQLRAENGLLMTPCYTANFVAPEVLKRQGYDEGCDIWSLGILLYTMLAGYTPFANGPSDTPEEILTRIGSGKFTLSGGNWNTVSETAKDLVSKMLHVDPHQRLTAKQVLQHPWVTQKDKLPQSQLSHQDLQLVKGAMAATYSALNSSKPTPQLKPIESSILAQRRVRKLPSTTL
Excerpt: as §1

PKBa, sequence (P31749 whole entry): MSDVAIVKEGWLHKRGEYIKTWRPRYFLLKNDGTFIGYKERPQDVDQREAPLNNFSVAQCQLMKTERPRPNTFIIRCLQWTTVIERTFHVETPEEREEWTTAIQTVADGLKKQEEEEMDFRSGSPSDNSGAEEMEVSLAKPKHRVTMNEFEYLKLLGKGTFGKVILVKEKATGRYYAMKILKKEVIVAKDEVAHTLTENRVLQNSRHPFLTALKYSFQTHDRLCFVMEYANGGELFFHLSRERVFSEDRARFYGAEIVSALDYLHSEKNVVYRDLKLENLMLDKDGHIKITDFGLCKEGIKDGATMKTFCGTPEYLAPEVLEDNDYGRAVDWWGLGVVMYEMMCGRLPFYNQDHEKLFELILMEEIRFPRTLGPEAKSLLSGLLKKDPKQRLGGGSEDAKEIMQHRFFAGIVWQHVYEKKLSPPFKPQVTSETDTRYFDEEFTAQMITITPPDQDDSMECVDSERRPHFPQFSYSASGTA
JNK1, sequence (P45983 whole entry, species assumed): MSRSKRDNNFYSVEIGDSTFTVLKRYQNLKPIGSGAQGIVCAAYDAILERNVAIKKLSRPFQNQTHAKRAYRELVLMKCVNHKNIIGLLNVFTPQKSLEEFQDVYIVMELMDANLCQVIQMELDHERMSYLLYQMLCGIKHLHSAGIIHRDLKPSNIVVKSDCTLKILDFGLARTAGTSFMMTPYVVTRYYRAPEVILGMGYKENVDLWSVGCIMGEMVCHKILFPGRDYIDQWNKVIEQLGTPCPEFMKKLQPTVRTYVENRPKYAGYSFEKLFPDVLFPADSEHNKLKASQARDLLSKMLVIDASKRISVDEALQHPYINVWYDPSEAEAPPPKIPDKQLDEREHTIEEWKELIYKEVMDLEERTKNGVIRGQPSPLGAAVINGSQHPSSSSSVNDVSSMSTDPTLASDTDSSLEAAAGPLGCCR

As to `COc1ccc2nc(NC(C)=O)sc2c1` [Compound 03-20], the pIC50 in experiment [1] is 4.91.
Consider `CC(=O)Nc1ccc(C(=O)Nc2nc3ccc(O)cc3s2)cc1` [Compound 03-74], for which the “residual kinase activity, SGK1” value in experiment [2] stood at 59. In addition, in [3], the “residual kinase activity, ROCK 2” value was 32. Moreover, the “residual kinase activity, PKBa” value in experiment [4] stood at 87. For the same compound, the “residual kinase activity, PRK2” value in experiment [5] was 54. For the same compound, the “residual kinase activity, JNK1” value in experiment [6] is listed as 80. Moreover, in experiment [7], the “residual kinase activity, MKK1” value was 35. For the same compound, the “residual kinase activity, PKD1” value in [8] came to 53. The “residual kinase activity, PDK1” value in experiment [9] is 93. In addition, in [10], the “residual kinase activity, p38a MAPK” value was determined as 106. Besides, the “residual kinase activity, S6K1” value in experiment [11] worked out at 29. For the same compound, the “residual kinase activity, PKCa” value in [12] came out at 92. In [13], the “residual kinase activity, PKA” value was 90. The “residual kinase activity, RSK1” value in experiment [14] is given as 19.
Regarding `CC(=O)Nc1nc2ccc(C(N)=O)cc2s1` [Compound 08-70], the pIC50 in experiment [1] is 4.80.
